Laboratory results as given in patent US9133163B2, “Dihydropyrazole GPR40 modulators” (Bristol-Myers Squibb Company, priority 2012, dated 2015).
pEC50: −log10 of the molar value.

These compounds were tested against hGPR40 (Homo sapiens, UniProt O14842) (assay: FDSS-based intracellular calcium assay). Conditions: intracellular Ca2+ response, cells expressing GPR40.
Chain of hGPR40 (O14842 whole entry): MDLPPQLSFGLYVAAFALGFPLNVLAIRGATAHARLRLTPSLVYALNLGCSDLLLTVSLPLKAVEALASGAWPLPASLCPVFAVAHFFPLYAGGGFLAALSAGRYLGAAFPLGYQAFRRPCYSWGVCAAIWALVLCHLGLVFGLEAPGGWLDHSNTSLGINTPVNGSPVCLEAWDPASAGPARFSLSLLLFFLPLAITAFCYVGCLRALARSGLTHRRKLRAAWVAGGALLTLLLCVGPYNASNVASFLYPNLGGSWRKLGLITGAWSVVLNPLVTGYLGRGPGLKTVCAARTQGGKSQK
Type: cell-based
Set-up: 3xFLAG; expressed in transfected cells
Method: FDSS-Based Intracellular Calcium Assay
Compounds are dissolved in DMSO and diluted to desired concentrations with assay buffer and added to the cells as 3× solution (20 μL per well). Run fluorescence/luminescence reader FDSS (Hamamatsu) to read intracellular Ca^2+ response.
`C[C@@H]1C(C(F)(F)F)=NN(c2ccc(OC3CCN(c4ccc(Cl)cc4)CC3)cc2)[C@H]1CC(=O)O` [Example 56, 2-((4S,5S)-1-(4-((1-(4-Chlorophenyl)piperidin-4-yl)oxy)phenyl)-4-methyl-3-(trifluoromethyl)-4,5-dihydro-1H-pyrazol-5-yl)acetic acid] showed a pEC50 of 5.20.
`COc1ccc(F)c(N2CCC(Oc3ccc(N4N=C(c5ncccn5)C(C)C4CC(=O)O)cc3)CC2)c1` (single isomer, unassigned) [Example 22, Isomer 1, 2-(1-(4-((1-(2-Fluoro-5-methoxyphenyl)piperidin-4-yl)oxy)phenyl)-4-methyl-3-(pyrimidin-2-yl)-4,5-dihydro-1H-pyrazol-5-yl)acetic acid] gave a pEC50 of 5.69.
`COc1cccc(F)c1N1CCC(Oc2ccc(N3N=C(C(F)(F)F)[C@@H](C)[C@@H]3CC(=O)O)cc2)CC1` [Example 54, 2-((4S,5S)-1-(4-((1-(2-Fluoro-6-methoxyphenyl)piperidin-4-yl)oxy)phenyl)-4-methyl-3-(trifluoromethyl)-4,5-dihydro-1H-pyrazol-5-yl)acetic acid] showed a pEC50 of 5.23.
Compound `COc1ccccc1N1CCC(Oc2ccc(N3N=C(C(F)(F)F)[C@@H](C)[C@@H]3CC(=O)O)cc2)CC1` [Example 46, 2-((4S,5S)-1-(4-((1-(2-Methoxyphenyl)piperidin-4-yl)oxy)phenyl)-4-methyl-3-(trifluoromethyl)-4,5-dihydro-1H-pyrazol-5-yl)acetic acid] has a pEC50 of 5.77.
Work on `COc1ccc(F)c(N2CCC(Oc3ccc(N4N=C(C(F)(F)F)[C@@H](C)[C@@H]4CC(=O)O)cc3)C(F)C2)c1` (single isomer, unassigned) [Example 57 (Isomer 3)] yielded a pEC50 of 6.15.
Work on `CCOc1cc(N2CC[C@H](Oc3ccc(N4N=C(C(F)(F)F)[C@@H](C)[C@@H]4CC(=O)O)cc3)[C@@H](C)C2)c(Cl)cn1` [Example 82, 2-((4S,5S)-1-(4-(((3S,4S)-1-(5-Chloro-2-ethoxypyridin-4-yl)-3-methylpiperidin-4-yl)oxy)phenyl)-4-methyl-3-(trifluoromethyl)-4,5-dihydro-1H-pyrazol-5-yl)acetic acid] yielded a pEC50 of 6.12.
In the case of `CCC1C(C(F)(F)F)=NN(c2ccc(OC3CCN(c4cc(OC)ncc4Cl)CC3C)cc2)C1CC(=O)O` (single isomer, unassigned) [Example 86, Isomer 3, 2-(1-(4-((1-(5-Chloro-2-methoxypyridin-4-yl)-3-methylpiperidin-4-yl)oxy)phenyl)-4-ethyl-3-(trifluoromethyl)-4,5-dihydro-1H-pyrazol-5-yl)acetic acid], the pEC50 was 5.71.
Compound `COc1cc(N2CCC(Oc3ccc(N4N=C(C(F)(F)F)[C@@H](C)[C@@H]4CC(=O)O)cc3)C(F)C2)c(Cl)cn1` (single isomer, unassigned) [Example A1, Isomer 2] has a pEC50 of 6.66.
With `CCOc1ccc(F)c(N2CC[C@H](Oc3ccc(N4N=C(C(F)(F)F)[C@@H](C)[C@@H]4CC(=O)O)cc3)[C@@H](C)C2)c1` [Example 30, 2-((4S,5S)-1-(4-(((3S,4S)-1-(5-Ethoxy-2-fluorophenyl)-3-methylpiperidin-4-yl)oxy)phenyl)-4-methyl-3-(trifluoromethyl)-4,5-dihydro-1H-pyrazol-5-yl)acetic acid] the pEC50 was 5.92.
With `CC(C)c1cccc(N2CCC(Oc3ccc(N4N=C(C(F)(F)F)[C@@H](C)[C@@H]4CC(=O)O)cc3)CC2)c1` [Example 73, 2-((4S,5S)-1-(4-((1-(3-Isopropylphenyl)piperidin-4-yl)oxy)phenyl)-4-methyl-3-(trifluoromethyl)-4,5-dihydro-1H-pyrazol-5-yl)acetic acid] the pEC50 was 5.67.
For `COc1ccc(F)c(N2CCC(Oc3ccc(N4N=C(C(F)(F)F)[C@@H](CC5CC5)[C@@H]4CC(=O)O)cc3)CC2)c1` (single isomer, unassigned) [Example 90, Isomer 2], the pEC50 was 6.81.
Compound `CC[C@@H]1C(C(F)(F)F)=NN(c2ccc(OC3CCN(c4cc(OC)ccc4F)CC3)cc2)[C@H]1CC(=O)O` (single isomer, unassigned) [Example 88, Isomer 2] has a pEC50 of 5.13.
For `C[C@@H]1C(C(F)(F)F)=NN(c2ccc(OC3CCN(c4ccc(F)cc4Cl)CC3)cc2)[C@H]1CC(=O)O` [Example 62, 2-((4S,5S)-1-(4-((1-(2-Chloro-4-fluorophenyl)piperidin-4-yl)oxy)phenyl)-4-methyl-3-(trifluoromethyl)-4,5-dihydro-1H-pyrazol-5-yl)acetic acid], the pEC50 was 6.42.
With `CC(C)c1ccc(F)c(N2CCC(Oc3ccc(N4N=C(C(F)(F)F)[C@@H](C)[C@@H]4CC(=O)O)cc3)CC2)c1` [Example 66, 2-((4S,5S)-1-(4-((1-(2-Fluoro-5-isopropylphenyl)piperidin-4-yl)oxy)phenyl)-4-methyl-3-(trifluoromethyl)-4,5-dihydro-1H-pyrazol-5-yl)acetic acid] the pEC50 was 6.22.
`COc1cc(F)c(F)c(N2CCC(Oc3ccc(N4N=C(C(F)(F)F)[C@@H](C)[C@@H]4CC(=O)O)cc3)C(C)C2)c1` (single isomer, unassigned) [Example 8 (Isomer 1)] gave a pEC50 of 6.10.
In the case of `COc1cc(C)c(N2CCC(Oc3ccc(N4N=C(C(F)(F)F)[C@@H](C)[C@@H]4CC(=O)O)cc3)CC2)c(C)c1` [Example 51, 2-((4S,5S)-1-(4-((1-(4-Methoxy-2,6-dimethylphenyl)piperidin-4-yl)oxy)phenyl)-4-methyl-3-(trifluoromethyl)-4,5-dihydro-1H-pyrazol-5-yl)acetic acid], the pEC50 was 5.51.
Work on `CCOc1ccc(F)c(N2CCC(Oc3ccc(N4N=C(C(F)(F)F)[C@@H](C)[C@@H]4CC(=O)O)cc3)C(CC)C2)c1` (single isomer, unassigned) [Example 25 (Isomer 1)] yielded a pEC50 of 5.99.
For `CCOc1cc(N2CC[C@@H](Oc3ccc(N4N=C(C(F)(F)F)[C@@H](C)[C@@H]4CC(=O)O)cc3)[C@H](C)C2)c(Cl)cn1` [Example 83, 2-((4S,5S)-1-(4-(((3R,4R)-1-(5-Chloro-2-ethoxypyridin-4-yl)-3-methylpiperidin-4-yl)oxy)phenyl)-4-methyl-3-(trifluoromethyl)-4,5-dihydro-1H-pyrazol-5-yl)acetic acid], the pEC50 was 6.65.
Work on `CC(C)Oc1ccc(F)c(N2CCC(Oc3ccc(N4N=C(C(F)(F)F)[C@@H](C)[C@@H]4CC(=O)O)cc3)CC2)c1` [Example 9, 2-((4S,5S)-1-(4-((1-(2-Fluoro-5-isopropoxyphenyl)piperidin-4-yl)oxy)phenyl)-4-methyl-3-(trifluoromethyl)-4,5-dihydro-1H-pyrazol-5-yl)acetic acid] yielded a pEC50 of 6.43.
Work on `C[C@@H]1C(C(F)(F)F)=NN(c2ccc(OC3CCN(c4ccc(Cl)cc4F)CC3)cc2)[C@H]1CC(=O)O` [Example 63, 2-((4S,5S)-1-(4-((1-(4-Chloro-2-fluorophenyl)piperidin-4-yl)oxy)phenyl)-4-methyl-3-(trifluoromethyl)-4,5-dihydro-1H-pyrazol-5-yl)acetic acid] yielded a pEC50 of 6.40.
Work on `CC(C)COc1cc(F)c(F)c(N2CCC(Oc3ccc(N4N=C(C(F)(F)F)[C@@H](C)[C@@H]4CC(=O)O)cc3)CC2)c1` [Example 18, 2-((4S,5S)-1-(4-((1-(2,3-Difluoro-5-isobutoxyphenyl)piperidin-4-yl)oxy)phenyl)-4-methyl-3-(trifluoromethyl)-4,5-dihydro-1H-pyrazol-5-yl)acetic acid] yielded a pEC50 of 5.32.
Work on `COc1cc(N2CC[C@H](Oc3ccc(N4N=C(C(F)(F)F)[C@@H](C)[C@@H]4CC(=O)O)cc3)[C@@H](C)C2)c(Cl)cn1` [Example 81, Isomer 1, 2-((4S,5S)-1-(4-((1-(5-Chloro-2-methoxypyridin-4-yl)-3-methylpiperidin-4-yl)oxy)phenyl)-4-methyl-3-(trifluoromethyl)-4,5-dihydro-1H-pyrazol-5-yl)acetic acid] yielded a pEC50 of 6.50.
`COc1cc(F)c(F)c(N2CCC(Oc3ccc(N4N=C(C(F)(F)F)[C@@H](C)[C@@H]4CC(=O)O)cc3)C(C)C2)c1` (single isomer, unassigned) [Example 8 (Isomer 2)] showed a pEC50 of 6.63.
`C[C@@H]1C(C(F)(F)F)=NN(c2ccc(OC3CCN(c4ccccn4)CC3)cc2)[C@H]1CC(=O)O` [Example 74, 2-((4S,5S)-4-Methyl-1-(4-((1-(pyridin-2-yl)piperidin-4-yl)oxy)phenyl)-3-(trifluoromethyl)-4,5-dihydro-1H-pyrazol-5-yl)acetic acid] gave a pEC50 of 5.58.
Compound `C[C@@H]1C(C(F)(F)F)=NN(c2ccc(OC3CCN(c4ccccc4Cl)CC3)cc2)[C@H]1CC(=O)O` [Example 37, 2-((4S,5S)-1-(4-((1-(2-Chlorophenyl)piperidin-4-yl)oxy)phenyl)-4-methyl-3-(trifluoromethyl)-4,5-dihydro-1H-pyrazol-5-yl)acetic acid] has a pEC50 of 6.35.
`CCOc1cc(N2CC[C@H](Oc3ccc(N4N=C(C(F)(F)F)[C@@H](C)[C@@H]4CC(=O)O)cc3)[C@@H](C)C2)c(F)cn1` [Example 84, 2-((4S,5S)-1-(4-(((3S,4S)-1-(2-Ethoxy-5-fluoropyridin-4-yl)-3-methylpiperidin-4-yl)oxy)phenyl)-4-methyl-3-(trifluoromethyl)-4,5-dihydro-1H-pyrazol-5-yl)acetic acid] showed a pEC50 of 5.59.
`CCOc1cc(F)c(F)c(N2CCC(Oc3ccc(N4N=C(C(F)(F)F)[C@@H](C)[C@@H]4CC(=O)O)cc3)C(C)C2)c1` (single isomer, unassigned) [Example 10 (Isomer 2)] gave a pEC50 of 6.50.
`COc1ccc(F)c(N2CCC(Oc3ccc(N4N=C(C(F)(F)F)[C@@H](CC(C)C)[C@@H]4CC(=O)O)cc3)CC2)c1` (single isomer, unassigned) [Example 89, Isomer 1] was tested, and the pEC50 was 5.10.
For `C[C@@H]1C(C(F)(F)F)=NN(c2ccc(OC3CCN(c4cc(Cl)ccc4F)CC3)cc2)[C@H]1CC(=O)O` [Example 64, 2-((4S,5S)-1-(4-((1-(5-Chloro-2-fluorophenyl)piperidin-4-yl)oxy)phenyl)-4-methyl-3-(trifluoromethyl)-4,5-dihydro-1H-pyrazol-5-yl)acetic acid], the pEC50 was 6.29.
Compound `COc1cc(F)cc(N2CCC(Oc3ccc(N4N=C(C(F)(F)F)[C@@H](C)[C@@H]4CC(=O)O)cc3)CC2)n1` [Example 80, 2-((4S,5S)-1-(4-((1-(4-Fluoro-6-methoxypyridin-2-yl)piperidin-4-yl)oxy)phenyl)-4-methyl-3-(trifluoromethyl)-4,5-dihydro-1H-pyrazol-5-yl)acetic acid] has a pEC50 of 5.59.
